# Test results as given in patent US5215744A, “Methods for the treatment of tumors” (Boehringer Ingelheim GmbH, priority 1987, dated 1993).
# Legend:
# MM-1CB cells [1] = assay: Survival of MM-1CB cells after sequential dipyridamole / interferon β treatment; type: cell-based, human; conditions: vs simultaneous administration; cells cultured in dishes (FIG. 11)
# Method: Experimental numbers (Exp. Nos.) 1, 2, and 3 were the results obtained under reported cell-culture-conditions. In Exp. Nos. 4 and 5, treatment with DP alone and without IFN β was done during […] of the experiment schedule, respectively. In Exp. No. 6 IFN β treatment alone, without the DP addition, was done after DP treatment alone for the first 24 hours of the experimental schedule; after the DP treatment culture medium was depleted and cells were washed three times with Eagle's minimal essential medium, followed by being cultured with medium containing IFN β.
# [2] = several hours after administration; cited from earlier work
# SEKI-F melanoma cells = assay: Survival after continuous exposure to dipyridamole and interferon β; type: cell-based, human
# Text: Culture and the exposure conditions were the same as described in the previous manuscript.
# [3] = system: human ovarian carcinoma cell line; conditions: cited from earlier work
# PLC/PRF/5 cells = assay: Cell proliferation inhibition test (trypan-blue exclusion), continuous exposure; type: cell-based, human; conditions: HuIFN and dipyridamole (FIG. 5)
# Text: (§1) Four established cell lines were used. These were MM-1CB, derived from tissues of malignant melanoma (level IV, pT4 N0 M0) in a person (Jpn. J. Dermatol. 96:947 (1986)); KT, derived from metastatic brain tumor in a person (J. Rad. Res. 26:59 (1985) and The 44th Meeting of Japanese Cancer Association, 718 (1985)); PLC/PRF/5, derived from human hepatoma (Brit. J. Cancer 34:509-515 (1976)) and a transformed cell line RSa (Virology 135:20-29 (1984), and J. Natl. Cancer Inst. 56:919-926 (1976)).
# (§2) Cells were cultured with Eagle's minimal essential medium (EMEM) containing 10% fetal bovine serum (GIBCO, U.S.A.) and antibiotics ([…] streptomycin/ml and 100 units penicillin G/ml), in an incubator at 37° C. under 5% CO2.
# (§3) Other chemical agents were purchased from the Nakarai Co., Ltd., Japan.
# (§4) Changes of medium with and without agents were carried out every other day. The viable cells were determined by trypan-blue exclusion test and counted with a hemocytometer. The survival percentage ratio was expressed as (counts of viable cells in test dishes per counts of viable cells in control dishes) x 100%, as described elsewhere in, e.g., Mutation Research 106:357-376 (1982) and […]. 67:651-661 (1986).
# (§5) Most of experiments were carried out under a dim light or in the dark. Results were expressed as the mean of values obtained from more than two independent experiments.
# KT cells = assay: as above; type: cell-based, human
# Text: as §1, §2, §3, §4, §5
# MM-1CB = assay: as above; type: cell-based, human
# Text: as §1, §2, §3, §4, §5
# MM-1CB cells [4] = assay: Growth rate of established tumors in nude mice; type: in vivo, human tumor cells in nude mice
# Method: Growth rate of tumors after the apparent tumor appeared and then were treated with agents.
# the two agents combination
smiles,measurement,setting,value
"OCCN(CCO)c1nc(N2CCCCC2)c2nc(N(CCO)CCO)nc(N3CCCCC3)c2n1 [dipyridamole, 2,6-bis(diethanolamine)-4,8-dipiperidino-pyrimido[5,4-d]pyrimidin]",effect of dipyridamole pretreatment on proliferation,MM-1CB cells [1],more effective than a simultaneous administration of the two agents
same,concentration in blood,[2],a few micromoles
same,inhibitory effect on cell proliferation,SEKI-F melanoma cells; dipyridamole alone (FIG. 14),little inhibitory effect on cell proliferation
same,enhancement of cell proliferation inhibition induced by interferon,"SEKI-F melanoma cells; with interferon β 100-1000 IU/ml, 6 days (FIG. 14)",can enhance cell proliferation inhibition induced by interferon
same,cytotoxicity of its own,[3]; dipyridamole alone,no cytotoxicity of its own
same,PALA activity,[3]; with PALA,increased PALA activity
same,"synergistic inhibitory activity, susceptibility",PLC/PRF/5 cells,high susceptibility to the synergistic inhibitory activity
same,"synergistic inhibitory activity, susceptibility",KT cells; HuIFN and dipyridamole (FIG. 4),high susceptibility to the synergistic inhibitory activity
same,"inhibition of cell replication, combination",KT cells; HuIFN-α with simultaneous dipyridamole (FIG. 4),inhibition of cell replication was enhanced
same,influence on KT cell replication,"KT cells; dipyridamole alone, less than 0.1 μM (FIG. 4B)",scarcely influenced KT cell replication
same,concentration that enhances the inhibitory effect of HuIFN-α,KT cells; with HuIFN-α (FIG. 4B),less than 0.1 μM
same,"effect with HuIFN-α, -β and -γ","MM-1CB; 0.1 μM dipyridamole continuously, 6 days (FIG. 3A)","additive effect with HuIFN-α, -β and -γ was also observed"
same,inhibition of cell growth,"MM-1CB; 0.1 μM dipyridamole with 10 units/ml HuIFN-β, more than 4 days (FIG. 1)",considerable inhibition of cell growth
same,suppression of cell proliferation,MM-1CB; agent alone: 10 units/ml HuIFN-β or 0.1 μM dipyridamole (FIG. 1),only slightly effective in suppressing cell proliferation
same,lower concentration effective in enhancing the anticellular effect of HuIFN,"MM-1CB; with HuIFN, 6 days (FIG. 3B)",0.01 µM
same,"depression of tumor growth, combination",MM-1CB cells [4]; two agents given after tumor reached more than about 1 cm in diameter (FIG. 10),not drastically effective in depressing tumor growth
same,effect of dipyridamole treatment prior to interferon,MM-1CB cells [4]; vs simultaneous administration (FIG. 10),more effective than a simultaneous administration of the two agents
